Results published in patent US20050255595A1, “Genetically modified non-human mammal cells, procedure for their production and use in toxicity tests” (priority 2002, published 2005).
Where two headings read alike, the source gives them in different places.

How the values were obtained:
MMH/GH5 cells (Clone 5) = tested on: MMH/GH5 cells (Clone 5); set-up: hGH secreted, MMHGH/5 1 + 24 h / hGH secreted, MMHGH/5 5 + 24 / hGH secreted, MMHGH/5 1 h / hGH secreted, MMHGH/5 5 h: dose or concentration left out as unconfirmed
[1] = tested on: primary hepatocytes (PHGH); test: cellular survival of PHGH, Trypan Blue exclusion; assay type: cell-based, mice; set-up: % cellular survival, PHGH 1 + 24 h / % cellular survival, PHGH 5 + 24 / % vitality of the cells, PHGH 1 + 24 h / % vitality of the cells, PHGH 5 + 24 h: unit of the concentration uncertain; details: for % cellular survival, PHGH 1 + 24 h / % vitality of the cells, PHGH 1 + 24 h: 1 h treatment + 24 h normal medium; for % cellular survival, PHGH 5 + 24 / % vitality of the cells, PHGH 5 + 24 h: 5 h treatment + 24 h normal medium
Description: (§1) This different behaviour is explained by the greater sensitivity to the toxicant of the PHGH with respect to the MMH/GH5 as shown by analysis of the cellular vitality performed with the Trypan Blue method (FIG. 1, graph B). […] Therefore the greater resistance of the cells MMH/GH/5 to the toxicants constitutes another evident advantage as it permits the exclusion of false negatives in which the non-release of hGH, due to cellular death, is interpreted as non-toxicity of the compound. When the supernatant is collected after 5 hours of treatment followed by 24 hours of culture with normal medium (FIG. 1 graph C) the PHGHs respond, at the lowest concentrations of the two toxicants, with high levels of secretion of hGH and, at the highest concentrations, with low levels of secretion of hGH (lower cellular survival, graph D).
(§2) In table 3 the cellular survival percentage was determined with the Trypan Blue exclusion method. […]
(§3) For treatment, the two types of cells were treated with different concentrations of the compounds for 1 or 5 hours and then with normal medium for a further 24 hours. The effects of the treatment were assessed as described previously for the inorganic toxicants.

MMH/GH5 cells = test: cellular survival of MMH/GH5, Trypan Blue exclusion; assay type: cell-based, mice; set-up: % cellular survival, MMHGH/5 1 + 24 h / % cellular survival, MMHGH/5 5 + 24 / % vitality of the cells, MMH/GH 1 + 24 h / % vitality of the cells, MMH/GH 5 + 24 h: unit of the concentration uncertain; details: for % cellular survival, MMHGH/5 1 + 24 h / % vitality of the cells, MMH/GH 1 + 24 h: 1 h treatment + 24 h normal medium; for % cellular survival, MMHGH/5 5 + 24 / % vitality of the cells, MMH/GH 5 + 24 h: 5 h treatment + 24 h normal medium
Description: as §1, §2, §3

[2] = tested on: single transgenic HPS70/hGH primary hepatocytes (PHGH); test: toxicity test, hGH secretion by primary transgenic hepatocytes (PHGH); assay type: cell-based, mice; set-up: hGH secreted, PHGH 1 h / hGH secreted, PHGH 5 h / hGH secreted, PHGH 1 + 24 h / hGH secreted, PHGH 5 + 24: unit of the concentration uncertain
Description: On the basis of the results illustrated, for the further analyses, clone no. […] The response to the toxic stress of the clone MMH/GH5 was then compared with the one obtained in single transgenic HPS70/hGH primary hepatocytes (PHGH). A representative sample of the cell line derived from said clone MMH/GH5 was deposited in accordance with and for the purposes of the Treaty of Budapest on the international recognition of deposit of micro-organisms for the purposes of the patents procedure with the AID “Centro di Biotecnologie Avanzate (CBA), Interlab Cell Line Collection (ICLC)” Servizio Biotecnologie, Largo R. Benzi, 10, 16132 Genova, Italy, on Jul. 30, 2002, where it was given identification number PD 02007.
as §2, §3

[3] = 25 (unit uncertain), Trypan Blue
[4] = 50 (unit uncertain), Trypan Blue (Table 3)
[5] = 50 (unit uncertain), Trypan Blue (Table 4)
[6] = 100 (unit uncertain), Trypan Blue
[7] = 10 (unit uncertain), Trypan Blue
[8] = 5 (unit uncertain), Trypan Blue
[9] = 0.5 (unit uncertain), Trypan Blue
[10] = 1 (unit uncertain), Trypan Blue

## CCCCC[C@H](O)/C=C/[C@H]1C=CC(=O)[C@@H]1C/C=C\CCCC(=O)O [PGA2]
MMH/GH5 cells (Clone 5); 25, 1 h treatment
  hGH secreted, MMHGH/5 1 h: 1 pg hGH/10^6 cells
MMH/GH5 cells (Clone 5); 25, 1 h treatment + 24 h normal medium
  hGH secreted, MMHGH/5 1 + 24 h: 2 pg hGH/10^6 cells
MMH/GH5 cells (Clone 5); 25, 5 h treatment
  hGH secreted, MMHGH/5 5 h: 53 pg hGH/10^6 cells
MMH/GH5 cells (Clone 5); 25, 5 h treatment + 24 h normal medium
  hGH secreted, MMHGH/5 5 + 24: 0 pg hGH/10^6 cells
MMH/GH5 cells (Clone 5); 50, 1 h treatment (Table 3)
  hGH secreted, MMHGH/5 1 h: 8 pg hGH/10^6 cells
MMH/GH5 cells (Clone 5); 50, 1 h treatment + 24 h normal medium (Table 3)
  hGH secreted, MMHGH/5 1 + 24 h: 92 pg hGH/10^6 cells
MMH/GH5 cells (Clone 5); 50, 5 h treatment (Table 3)
  hGH secreted, MMHGH/5 5 h: 107 pg hGH/10^6 cells
MMH/GH5 cells (Clone 5); 50, 5 h treatment + 24 h normal medium (Table 3)
  hGH secreted, MMHGH/5 5 + 24: 0 pg hGH/10^6 cells
[1]; [3]
  % cellular survival, PHGH 1 + 24 h: 90%
  % cellular survival, PHGH 5 + 24: 90%
[1]; [4]
  % cellular survival, PHGH 1 + 24 h: 90%
  % cellular survival, PHGH 5 + 24: 90%
MMH/GH5 cells; [3]
  % cellular survival, MMHGH/5 1 + 24 h: 90%
  % cellular survival, MMHGH/5 5 + 24: 90%
MMH/GH5 cells; [4]
  % cellular survival, MMHGH/5 1 + 24 h: 90%
  % cellular survival, MMHGH/5 5 + 24: 90%
[2]; 25 (unit uncertain), 1 h treatment
  hGH secreted, PHGH 1 h: 1 pg hGH/10^6 cells
[2]; 25 (unit uncertain), 1 h treatment + 24 h normal medium
  hGH secreted, PHGH 1 + 24 h: 0 pg hGH/10^6 cells
[2]; 25 (unit uncertain), 5 h treatment
  hGH secreted, PHGH 5 h: 56 pg hGH/10^6 cells
[2]; 25 (unit uncertain), 5 h treatment + 24 h normal medium
  hGH secreted, PHGH 5 + 24: 10 pg hGH/10^6 cells
[2]; 50 (unit uncertain), 1 h treatment (Table 3)
  hGH secreted, PHGH 1 h: 27 pg hGH/10^6 cells
[2]; 50 (unit uncertain), 1 h treatment + 24 h normal medium (Table 3)
  hGH secreted, PHGH 1 + 24 h: 26 pg hGH/10^6 cells
[2]; 50 (unit uncertain), 5 h treatment (Table 3)
  hGH secreted, PHGH 5 h: 95 pg hGH/10^6 cells
[2]; 50 (unit uncertain), 5 h treatment + 24 h normal medium (Table 3)
  hGH secreted, PHGH 5 + 24: 37 pg hGH/10^6 cells

## Oc1c(Cl)c(Cl)c(Cl)c(Cl)c1Cl [PCP, PentaChloroPhenol]
MMH/GH5 cells (Clone 5); words, Table 4
  induction of a response in MMH/GH5: requires a prolonged exposure time to induce a response
[1]; [5]
  % vitality of the cells, PHGH 1 + 24 h: 10%
  % vitality of the cells, PHGH 5 + 24 h: 10%
[1]; [6]
  % vitality of the cells, PHGH 1 + 24 h: 0%
  % vitality of the cells, PHGH 5 + 24 h: 0%
[1]; words, Table 4
  toxicity for the PHGHs: toxic
MMH/GH5 cells; [5]
  % vitality of the cells, MMH/GH 1 + 24 h: 90%
  % vitality of the cells, MMH/GH 5 + 24 h: 70%
MMH/GH5 cells; [6]
  % vitality of the cells, MMH/GH 1 + 24 h: 80%
  % vitality of the cells, MMH/GH 5 + 24 h: 50%

## c1ccc2c(c1)cc1ccc3cccc4ccc2c1c34 [BaP, Benzo(a)Pyrene]
[1]; [7]
  % vitality of the cells, PHGH 1 + 24 h: 50%
  % vitality of the cells, PHGH 5 + 24 h: 50%
[1]; [5]
  % vitality of the cells, PHGH 1 + 24 h: 50%
  % vitality of the cells, PHGH 5 + 24 h: 30%
MMH/GH5 cells; [7]
  % vitality of the cells, MMH/GH 1 + 24 h: 90%
  % vitality of the cells, MMH/GH 5 + 24 h: 90%
MMH/GH5 cells; [5]
  % vitality of the cells, MMH/GH 1 + 24 h: 90%
  % vitality of the cells, MMH/GH 5 + 24 h: 90%
[2]; words, Table 4
  stimulation of the promoter HSP70 in the PHGHs: does not stimulate

## Oc1c(Cl)c(Cl)c(O)c(Cl)c1Cl [TCHQ, TetraChloroHydroQuinone]
MMH/GH5 cells (Clone 5); compared with PCP, words
  response in MMH/GH5: stronger response
[1]; [5]
  % vitality of the cells, PHGH 1 + 24 h: 50%
  % vitality of the cells, PHGH 5 + 24 h: 60%
[1]; [6]
  % vitality of the cells, PHGH 1 + 24 h: 0%
  % vitality of the cells, PHGH 5 + 24 h: 0%
MMH/GH5 cells; [5]
  % vitality of the cells, MMH/GH 1 + 24 h: 50%
  % vitality of the cells, MMH/GH 5 + 24 h: 30%
MMH/GH5 cells; [6]
  % vitality of the cells, MMH/GH 1 + 24 h: 10%
  % vitality of the cells, MMH/GH 5 + 24 h: 0%
[2]; compared with PCP, words
  response in PHGH: stronger response

## O=[N+]([O-])c1ccc(Cl)c([N+](=O)[O-])c1 [CDNB, 1-Chloro-2,4-DiNitro-Benzene]
MMH/GH5 cells (Clone 5); all the conditions tested
  secretion of the hGH from the MMH/GH5 cells: considerable secretion
[1]; [8]
  % vitality of the cells, PHGH 1 + 24 h: 80%
  % vitality of the cells, PHGH 5 + 24 h: 40%
[1]; [5]
  % vitality of the cells, PHGH 1 + 24 h: 5%
  % vitality of the cells, PHGH 5 + 24 h: 5%
MMH/GH5 cells; [8]
  % vitality of the cells, MMH/GH 1 + 24 h: 80%
  % vitality of the cells, MMH/GH 5 + 24 h: 60%
MMH/GH5 cells; [5]
  % vitality of the cells, MMH/GH 1 + 24 h: 70%
  % vitality of the cells, MMH/GH 5 + 24 h: 20%
MMH/GH5 cells; words, data in table 4
  toxicity on MMH/GH5 cells compared with PHGHs: less toxic

## O=C1C=CCC1 [2-Cycl, 2-cyclopentene-1-one]
MMH/GH5 cells (Clone 5); words, Table 3
  response (hGH secretion) in MMH/GH5: rapid response
[1]; [9]
  % cellular survival, PHGH 1 + 24 h: 90%
  % cellular survival, PHGH 5 + 24: 90%
[1]; [10]
  % cellular survival, PHGH 1 + 24 h: 80%
  % cellular survival, PHGH 5 + 24: 60%
MMH/GH5 cells; [9]
  % cellular survival, MMHGH/5 1 + 24 h: 90%
  % cellular survival, MMHGH/5 5 + 24: 90%
MMH/GH5 cells; [10]
  % cellular survival, MMHGH/5 1 + 24 h: 90%
  % cellular survival, MMHGH/5 5 + 24: 90%

## C=CC(O)CCCCC (stereo not shown) [1-Oct, 1-octene-3-ol]
[1]; [9]
  % cellular survival, PHGH 1 + 24 h: 90%
  % cellular survival, PHGH 5 + 24: 60%
[1]; [10]
  % cellular survival, PHGH 1 + 24 h: 50%
  % cellular survival, PHGH 5 + 24: 20%
[1]; PHGH, words, Table 3
  cellular survival: reduced cellular survival
MMH/GH5 cells; [9]
  % cellular survival, MMHGH/5 1 + 24 h: 90%
  % cellular survival, MMHGH/5 5 + 24: 50%
MMH/GH5 cells; [10]
  % cellular survival, MMHGH/5 1 + 24 h: 70%
  % cellular survival, MMHGH/5 5 + 24: 20%
[2]; PHGH versus MMH/GH, at the end of the treatment
  effect of the treatment (hGH secretion): can be measured only in PHGH
